In general, IC50 refers to the concentration at which inhibition is half-maximal. A high value points to a need for much substance. Usually IC90 stands for the concentration needed for an effect of 90%.

Data set [1] can be described thus: Liver microsomal stability, dog. It is filed as in vitro ADME. Conditions: pooled liver microsomes, pH 7.4; dog liver microsomes 0.5 mg/mL; 3 μM compound; read-out: Liver Microsoinal Stability t1/2, dog. How it is done: Pooled liver microsomes are purchased from a reputable commercial supplier and stored at −80° C. prior to use. Microsomes (final protein concentration 0.5 mg/mL), 0.1 M phosphate buffer pH 7.4 and test compound (final substrate concentration 3 μM; final DMSO concentration 0.25%) are pre-incubated at 37° C. prior to the addition of NADPH (final concentration 1 mM) to initiate the reaction. The final incubation volume is 50 uL. A control incubation is included for each compound tested where 0.1 M phosphate buffer pH 7.4 is added instead of NADPH (minus NADPH). Two control compounds are included with each species. All incubations are performed singularly for each test compound. Each compound is incubated for 0, 5, 15, 30 and 45 min. The control (minus NADPH) is incubated for 45 min only. The reactions are stopped by transferring 20 μL of incubate to 60 μL MeOH at the appropriate time points. The termination plates are centrifuged at 2,500 rpm for 20 min at 4° C. to precipitate the protein. Following protein precipitation, the sample supernatants are combined in cassettes of up to 4 compounds, internal standard is added and samples analysed by LC-MS/MS. From a plot of In peak area ratio (compound peak area/internal standard peak area) against time, the gradient of the line is determined. Subsequently, half-life and intrinsic clearance are calculated.
For orientation: Liver microsomes are vesicles of endoplasmic reticulum, rich in cytochrome P450 enzymes.

The next data set relates to RSV A2 VR-1540. Description: RSV plaque reduction assay. It is filed as cell-based. Conditions: human respiratory syncytial virus; Strain A2; n = 1; HEp-2 cells. How it is done: HEp-2 cells (ATCC, CCL23) were passaged in flasks and seeded in 96-well plates in DMEM containing antibiotics and supplemented with 10% FBS. During inoculation and subsequent incubation, cells were cultured in DMEM containing 3% FBS. 100 plaque forming unit (PFU)/well of RSV (RSV A2 VR-1540) was mixed with ten serial dilutions of compound. Subsequently, 100 μL of the virus/compound mixtures was added to confluent HEp-2 cell monolayers. The cells and virus/compound mixtures were incubated at 35° C. in a humidified 5% CO2 incubator for 1 day.
Cells were washed twice with PBS before adding 50% v/v EtOH/MeOH, and then stored at −20° C. On the day of the staining, fixative was first removed from the plates. Plates were washed 3× with PBS. A pre-titrated amount of the primary antibody was added in 60 μL PBS/2% milk powder, and plates incubated for 1 h at […]. The plates were washed 3× with PBS/0.05% Tween20 before addition of goat anti-mouse horse radish peroxidase in 60 μL PBS/2% milk powder, and incubated for 1 h at rt. Following three wash steps with PBS/0.05% Tween20, 60 μL ready-to-use TrueBlue was added and plates were incubated at rt for 10-15 min before adding MilliQ water. Plates were washed once with water, incubated for 30-60 min and after removal of water, air-dried in the dark.
Plates were scanned and analyzed using the Immunospot S6 UV analyzer, which is equipped with BioSpot analysis software for counting immunostained plaques (virospots). Plaque counts were used to calculate % infection relative to the mean of the spot count (SC) in the virus control wells for RSV. IC50/IC90 values were calculated as 50% or 90% reduction in signal, respectively, by interpolation of inhibition curves fitted with a 4-parameter nonlinear regression with a variable slope in GraphPad 5.0 (Prism).

A further data set addresses T1, CYP2B6 (Homo sapiens, UniProt P20813).
T1 construct: from tissue; host or cells: human liver microsomes
T1 sequence (P20813 1-491): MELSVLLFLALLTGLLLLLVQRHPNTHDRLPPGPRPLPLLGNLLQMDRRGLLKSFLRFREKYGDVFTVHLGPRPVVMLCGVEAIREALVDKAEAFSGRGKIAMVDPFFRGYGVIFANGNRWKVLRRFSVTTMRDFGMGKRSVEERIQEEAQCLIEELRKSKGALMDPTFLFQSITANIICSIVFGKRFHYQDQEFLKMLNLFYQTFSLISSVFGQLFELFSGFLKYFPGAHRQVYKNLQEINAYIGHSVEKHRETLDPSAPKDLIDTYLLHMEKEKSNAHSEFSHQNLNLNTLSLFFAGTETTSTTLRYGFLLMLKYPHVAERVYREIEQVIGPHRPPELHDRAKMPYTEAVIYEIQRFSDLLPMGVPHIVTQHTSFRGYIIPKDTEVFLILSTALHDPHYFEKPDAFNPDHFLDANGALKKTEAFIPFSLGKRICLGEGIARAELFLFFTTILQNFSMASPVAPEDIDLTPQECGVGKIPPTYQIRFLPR
Description: Cytochrome P450 inhibition CYP2B6. It counts as in vitro ADME. The conditions noted are these: human liver microsomes. How it is done:
(§1) Test compound (0.1, 0.25, 1, 2.5, 10, 25 μM in DMSO; final DMSO concentration 0.3%) was incubated with human liver microsomes (0.25 mg/mL) and NADPH (1 mM) in the presence of a cytochrome P450 isoform-specific probe substrate. The metabolites were monitored by LC-MS/MS and a decrease in the formation of the metabolite compared to the vehicle control used to calculate an IC50 value (test compound concentration which produces 50% inhibition). A cytochrome P450 isoform-specific selective inhibitor was screened alongside the test compounds as a positive control.

A further data set has as its target T2, CYP1A2 (Homo sapiens, UniProt P05177).
T2 construct: from tissue; host or cells: human liver microsomes
T2 sequence (P05177 1-516): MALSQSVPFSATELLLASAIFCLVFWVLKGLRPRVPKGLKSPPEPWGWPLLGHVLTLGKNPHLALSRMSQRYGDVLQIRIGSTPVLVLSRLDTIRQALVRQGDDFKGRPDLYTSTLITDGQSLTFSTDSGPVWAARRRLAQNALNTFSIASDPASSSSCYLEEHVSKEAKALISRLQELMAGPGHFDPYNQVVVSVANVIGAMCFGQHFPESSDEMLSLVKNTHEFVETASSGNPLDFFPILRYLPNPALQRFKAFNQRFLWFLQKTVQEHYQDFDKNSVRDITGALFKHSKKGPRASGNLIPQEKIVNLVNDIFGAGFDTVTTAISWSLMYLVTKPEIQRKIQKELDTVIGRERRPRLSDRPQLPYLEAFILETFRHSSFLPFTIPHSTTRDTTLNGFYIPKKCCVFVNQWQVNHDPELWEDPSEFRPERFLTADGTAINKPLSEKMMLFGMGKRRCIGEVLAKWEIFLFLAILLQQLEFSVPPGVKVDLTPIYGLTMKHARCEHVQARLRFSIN
Description: Cytochrome P450 inhibition CYP1A2. It is filed as in vitro ADME. The conditions noted are these: human liver microsomes. How it is done: as §1

A further data set deals with T3, CYP2C9 (Homo sapiens, UniProt P11712).
T3 construct: from tissue; host or cells: human liver microsomes
T3 sequence (P11712 whole entry): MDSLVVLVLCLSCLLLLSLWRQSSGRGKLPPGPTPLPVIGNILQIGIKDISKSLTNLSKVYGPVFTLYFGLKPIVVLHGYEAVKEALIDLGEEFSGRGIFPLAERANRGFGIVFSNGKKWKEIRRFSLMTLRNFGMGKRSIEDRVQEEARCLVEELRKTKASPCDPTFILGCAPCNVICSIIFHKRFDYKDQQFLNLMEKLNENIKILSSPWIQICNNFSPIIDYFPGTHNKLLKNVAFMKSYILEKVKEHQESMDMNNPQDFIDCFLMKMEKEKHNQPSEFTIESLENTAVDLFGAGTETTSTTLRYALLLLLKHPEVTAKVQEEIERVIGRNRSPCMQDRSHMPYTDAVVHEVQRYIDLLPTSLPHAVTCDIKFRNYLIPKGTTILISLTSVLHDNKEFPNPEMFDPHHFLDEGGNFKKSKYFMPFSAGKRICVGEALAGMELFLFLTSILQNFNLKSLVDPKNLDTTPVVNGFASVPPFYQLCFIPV
The experiment in a line: Cytochrome P450 inhibition CYP2C9. It is filed as in vitro ADME. The conditions noted are these: human liver microsomes. How it is done: as §1

With `CCS(=O)(=O)N1CCC(n2c(CN3C(=O)C4(CC4)c4ccc(F)cc43)nc3cc(Cl)ccc32)CC1` [Compound 35, 1′-({5-Chloro-1-[1-(ethanesulfonyl)piperidin-4-yl]-1H-1,3-benzodiazol-2-yl}methyl)-6′-fluoro-1′,2′-dihydrospiro[cyclopropane-1,3′-indole]-2′-one], in data set [1], the half-life at 3 μM worked out at 2.77 h. In the data set with RSV A2 VR-1540, this molecule returned an IC50 of 0.87 nM and an IC90 of 5.2 nM.

As to `CS(=O)(=O)N1CCC(n2c(CN3C(=O)C4(CC4)c4ccc(F)cc43)nc3cc(Cl)ccc32)CC1` [Compound 33, 1′-{[5-Chloro-1-(1-methanesulfonylpiperidin-4-yl)-1H-1,3-benzodiazol-2-yl]methyl}-6′-fluoro-1′,2′-dihydrospiro[cyclopropane-1,3′-indole]-2′-one], the IC50 against CYP2B6 was above 25000 nM; in the data set on RSV A2 VR-1540, 0.49 nM; at CYP1A2 it was above 25000 nM; against CYP2C9 it was above 25000 nM. Also, the half-life at 3 μM in data set [1] was 3.1 h. The same molecule came in with an IC90 in the data set with RSV A2 VR-1540 of 4.4 nM.

For the origin of these results see patent US11078189B2, “Pharmaceutical compounds” (REVIRAL LIMITED, priority 2017, dated 2021).
